For assay [1], the target named is T1, Lysosomal acid glucosylceramidase (Homo sapiens) (UniProt P04062).
T1 sequence (whole entry): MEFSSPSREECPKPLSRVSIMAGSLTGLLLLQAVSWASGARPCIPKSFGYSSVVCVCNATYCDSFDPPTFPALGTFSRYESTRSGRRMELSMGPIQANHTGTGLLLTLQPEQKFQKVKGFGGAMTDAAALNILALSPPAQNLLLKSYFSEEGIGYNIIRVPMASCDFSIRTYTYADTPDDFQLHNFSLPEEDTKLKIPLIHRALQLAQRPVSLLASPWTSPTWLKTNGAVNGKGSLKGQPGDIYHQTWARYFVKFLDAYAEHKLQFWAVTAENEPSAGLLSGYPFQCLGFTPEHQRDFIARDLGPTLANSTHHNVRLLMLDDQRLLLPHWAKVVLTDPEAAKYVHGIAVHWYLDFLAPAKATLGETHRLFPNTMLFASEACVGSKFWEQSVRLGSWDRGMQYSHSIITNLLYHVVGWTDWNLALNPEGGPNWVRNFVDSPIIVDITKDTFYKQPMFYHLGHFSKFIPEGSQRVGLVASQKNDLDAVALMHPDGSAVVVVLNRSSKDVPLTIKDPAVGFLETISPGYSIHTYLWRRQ
The experiment in a line: Inhibition of human beta-glucocerebrosidase at 1000 uM.

Assay [2] concerns the target T2, Uncharacterized protein (Sus scrofa) (UniProt I3LIR5).
T2 sequence (whole entry): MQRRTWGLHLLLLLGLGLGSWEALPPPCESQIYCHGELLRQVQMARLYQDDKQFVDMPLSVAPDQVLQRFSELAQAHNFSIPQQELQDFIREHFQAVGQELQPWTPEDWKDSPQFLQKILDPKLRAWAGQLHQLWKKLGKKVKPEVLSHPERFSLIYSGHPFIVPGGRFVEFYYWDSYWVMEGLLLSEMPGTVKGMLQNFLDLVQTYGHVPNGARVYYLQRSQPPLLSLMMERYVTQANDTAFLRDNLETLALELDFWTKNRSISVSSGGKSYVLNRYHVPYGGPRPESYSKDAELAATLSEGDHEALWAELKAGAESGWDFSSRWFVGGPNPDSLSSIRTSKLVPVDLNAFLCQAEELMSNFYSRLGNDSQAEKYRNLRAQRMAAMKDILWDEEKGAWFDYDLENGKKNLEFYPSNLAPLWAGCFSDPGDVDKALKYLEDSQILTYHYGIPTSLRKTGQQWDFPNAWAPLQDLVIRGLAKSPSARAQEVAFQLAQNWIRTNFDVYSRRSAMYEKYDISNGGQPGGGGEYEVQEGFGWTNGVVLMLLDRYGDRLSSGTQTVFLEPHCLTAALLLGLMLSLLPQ
Description: Inhibition of porcine kidney trehalase at 1000 uM.

The inhibition is the change of the read-out against control, counted positive when it falls. High values mean a strong effect, low ones a weak effect.

As to `CCCC[C@@H]1N[C@@H](CO)[C@H](O)[C@H]1O`, the inhibition in assay [1] and in assay [2] was less than 50% each time.
